Columns and labels:
[1] = system: HIV-1; assay: Plasma HIV viral load by ultrasensitive single copy assay; type: in vivo
Procedure: (§1) Aspirin at 81 mg daily was administered as thromboprophylaxis. Assessments were performed every 4 weeks for lymphocyte numbers, Kaposi sarcoma associated herpesvirus (KSHV/HHV8) viral load (VL) and HIV VL and at 8 weeks for T cell subsets and activation by immunophenotyping of peripheral blood mononuclear cells (PBMC). KSHV VL in PBMC and HIV VL in plasma were assayed by quantitative PCR; an ultrasensitive single copy assay was used for HIV VL. Changes from baseline were evaluated using the Wilcoxon signed rank test with P<0.005 considered significant given multiple comparisons. Differences in changes between the HIV infected and uninfected groups were evaluated using the Wilcoxon rank sum test. Median time of the patients on therapy 7 cycles (range 2-12).
Laboratory Assays: Lymphocyte subsets were assessed by fluorescent-activated cell sorting using the BlueOcean platform (Beckman Coulter, Carlsbad, Calif.). Plasma HIV-1 […] was evaluated using an ultrasensitive assay whose sensitivity was 1 viral copy per plasma volume. Briefly, a triplex PCR was used using a modification of a previously reported assay with three primers: one spanning the start codon of gag, one in the gag coding region, and one internal control. Samples were tested from 6 mL plasma aliquots, with 12 replicants per sample. KSHV VL in peripheral blood mononuclear cells (PBMC) was assessed by quantitative real-time PCR.
Changes in immunologic and virologic parameters were evaluated by a Wilcoxon signed rank test. Exact Wilcoxon rank sum tests were used to compare pharmacokinetic parameters at each time point and differences from baseline. All p-values are two-tailed and reported without adjustment for multiple comparisons. HRQL was analyzed using a using a mixed model repeated measures analysis for FAHI and the marginal homogeneity test for KS-specific questions

[2] = system: MHC-1; assay: K3/K5 mediated MHC-1 down-regulation in K3 or K5 transfected KSHV-negative BJAB cells; type: cell-based
Procedure: FIGS. 9A-9E. […] 24 hours after electroporation, FACS analysis was done using half of the cells. […] The remaining cells were subjected to lysis, protein extraction, and western blot. Blots were probed with antibodies to the indicated proteins.

[3] = patients; approved dose 4 mg; cited from earlier work
[4] = Safety and tolerability of pomalidomide in KS patients; type: in vivo, human
Procedure: as §1
Subsequent cycles commenced on day 29. In certain cases cycles were commenced when ANC was ≥1000 cells/mm3, hemoglobin≥10 g/dL, platelets≥50,000 cells/mm3 and otherwise held until these thresholds were met. […] HIV-infected patients continued baseline ART without adjustment. Prophylaxis for opportunistic infections including Pneumocystis jiroveci was administered following current guidelines.

[5] = system: p21; assay: Western blot of p21 in PEL cell lines; type: cell-based; settings: 10 ii M for 72 hours; FIGS. 6A-6B
Procedure: (§2) Cell Culture: The PEL lines JSC-1 (John Hopkins University, Baltimore, Md.), dually infected with Epstein-Barr virus (EBV) and HHV-8, and BC-3 (ATCC, Rockville, Md.) and BCBL-1(National Institute of Health AIDS Research and Reagent Program, Rockville, Md.), harboring KSHV only, and CA-46, an uninfected cancerous B-cell line, were grown in RPMI 1640 medium (Invitrogen, Carlsbad, Calif.) supplemented with 15% fetal-bovine serum (FBS) (Thermo Scientific, Rockford, Ill.) and Pen/Strep glutamine at 37° C. with 5% CO2.
Western Blotting: At the end of an incubation period, cells were lysed and nuclear/cytoplasmic extracts were prepared using the NE-PER nuclear extraction kit (Pierce). Samples were subjected to SDS-PAGE (4 to 12% NuPAGE Tris-Bis) (Invitrogen) and transferred to nitrocellulose. The membrane was blocked with 5% w/v nonfat dry milk in 1×TBST (10 mM Tris-Hcl, […], 150 mM NaCl, and 0.05% Tween 20) overnight at 4° C. Blots were incubated with indicated antibodies such as anti-IRF-7 (Santa Cruz), anti-IRF-4 (Cell Signaling), anti-p21 (Cell Signaling), anti-NF-κB p65 (Cell Signaling), anti-NF-κB phospho-p65 (Cell Signaling), IFN-γRa (Cell Signaling), or anti-CRBN (Sigma-Aldrich), and subjected to the appropriate secondary antibody conjugated to alkaline phosphatase (Promega). Bands were visualized with Western Blue stabilized substrate (Promega). […]

[6] = system: KSHV-infected PEL lines (BC-3, BCBL-1, JSC-1, BC-1); assay: Cell viability (Trypan Blue or CellTiter-Glo) in KSHV-infected PEL cell lines; type: cell-based; settings: among thalidomide, lenalidomide, pomalidomide, FIGS. 2A-2D
Procedure: In addition, the effect of the immunomodulatory drugs on KSHV down-regulation of MHC-1 during lytic activation was investigated by FACS analysis after pretreating the cells with Immunomodulatory drugs prior to lytic activation with butyrate.
Cell Viability: Cells were plated in triplicate at a density of 30,000-60,000 cells per well in 96-well plates. Cell lines were kept separate on different plates. Cell viability after indicated treatments were assayed by Trypan Blue or by adding the CellTiter-Glo reagent to measure the total ATP in cells cultured with serum-supplemented medium. For the latter, the corresponding luminescence values, correlated to the number of cells, were measured using a luminometer. The values for percentage of living cells were normalized to the control.
as §2

[7] = restricted to the 15 HIV positive subjects, paired data for 10-13 patients
[8] = 5 mg per day for 21 days of 28 day cycles

## Nc1cccc2c1C(=O)N(C1CCC(=O)NC1=O)C2=O (stereo not shown) [pomalidomide, 4-amino-2-(2,6-dioxopiperidin-3-yl)isoindoline-1,3-dione]
[1]; plasma, ultrasensitive single copy assay
  HIV VL: no significant change
[1]; [7]
  Plasma HIV VL (copies/mL) Change to End Therapy (Med, range): −0.5 copies/mL
  Plasma HIV VL (copies/mL) Change to Week 8 (Med, range): +0.75 copies/mL
[1]; restricted to the 15 HIV positive subjects, paired data for 10-13 patients, baseline 1.5
  Plasma HIV VL (copies/mL) Change to Week 4 (Med, range): +0.3 copies/mL
[2]; 10 μM for 48 hours before electroporation
  down-regulation of MHC-1 by plasmids encoding K3 or K5: prevented
[2]; 10 μM for 48 hours, GFP-positive cells
  prevention of MHC I knockdown, FACS analysis with K5: not consistently observed
[2]; 10 μM for 48 hours, K3 or K5 plasmids
  MHC I knockdown, western blots: preventing MHC I knockdown
[3]
  Plasma Serum Concentration: 300 nM
[4]; [8]
  adverse events, severity: generally mild, self limited, or reversible following therapy
  dose limiting events: No dose limiting events
[4]; both cohorts
  tolerability: well tolerated
[4]; exacerbation of pre-existing anxiety
  cessation of therapy for adverse effect: One subject ceased therapy for adverse effect
[4]; generally mild and self-limited, or resolved following cessation of therapy
  common adverse events: neutropenia, constipation, anemia not requiring transfusion, fatigue, and rash
[4]; with aspirin 81 mg daily thromboprophylaxis
  unplanned hospitalizations, febrile neutropenia, thromboembolic events: No unplanned hospitalizations, no febrile neutropenia, and no thromboembolic events
[5]
  p21 levels: most effective in up-regulating p21
[6]
  cell viability / PEL proliferation: most effective one at killing KSHV infected cells

— patent US10001483B2, “Methods for the treatment of Kaposi's sarcoma or KSHV-induced lymphoma using immunomodulatory compounds, and uses of biomarkers” (Celgene Corporation, priority 2015, dated 2018)
